The text below walks through data of patent US5792635A, “Method of inhibiting the sodium/proton exchanger NHE3 and method of inhibiting growth by administering squalamine” (priority 1995, dated 1998).

Assay [1] deals with human melanoma. The assay is described as follows: Effect on growth of human melanoma, time course (FIG. 17). In kind it is cell-based.
Assay [2] has as its system NHE5. The assay is described as follows: NHE isoform selectivity inferred from tadpole and chick embryo assays.
Assay [3] concerns LLC. In words: LLC MTT assay (Table II). Type of assay: cell-based. Particulars: Lewis lung carcinoma, read-out: Minimum Effective Concentration, LLC MTT. On the technique in general: Tetrazolium dyes change colour on reduction, which living cells bring about.
Assay [4] has as its system Xenopus tadpoles. In words: Tadpole assay. Particulars: Xenopus tadpole assay.
Assay [5] has as its system vitelline capillaries of 3- to 5-day chick embryo. In words: Chick embryo vitelline capillary regression assay. Type of assay: in vivo. Particulars: chick embryo capillary bed. As for the experimental part:
Using the chick embryo vitelline capillaries assay, compounds were tested for their ability to induce capillary regression. Each compound was applied in 0.1 ml of 15% Ficol 400 and PBS onto the embryo, and vascular regression was assessed after 60 minutes.
The 3-day chick embryo consists of an embryonic disc from which numerous vessels emerge and return, forming a "figure 8"-shaped structure--the embryo in the center with vascular loops extending outward over both poles. […] Following a lag period of around 15 minutes, the constriction of continuity between capillary and secondary vessels, generally on the "venous" side, was observed. Continued pulsatile blood flow progressed, resulting in a "swelling" of the blind tube, followed by a pinching off of the remaining connection and formation of an enclosed vascular sac resembling a "blood island." This process progressed until only the largest vessels remained intact.

`CC(C)CCC[C@@H](C)[C@H]1CC[C@H]2[C@@H]3CC[C@H]4C[C@@H](NCCCNCCCCNCCCN)CC[C@]4(C)[C@H]3CC[C@]12C` [Compound 353]: the “effect on melanoma growth, time dependence” value in assay [1] (FIG. 17A, less effect within first 12 hours) is recorded as “most pronounced over 48 hours”. Further, the “mode of cell death” value in assay [1] (cells exposed to compound 353) is recorded as “apoptotic cell death has been induced”. Also, the “NHE5 versus NHE3 selectivity” value in assay [2] was “inhibits NHE5 to a greater extent than NHE3”. Besides, the minimal effective concentration in assay [3] amounted to 1.9 µg/mL. Also, the “functional similarity in tadpole assay” value in assay [4] is on record as “effects like those produced by compound 1436”. The “vitelline capillary regression, potency in words” value in assay [5] is “no effect on the chick embryo capillary bed”.
